The source of these data is patent publication US12678509B2, “Inhibitor of apoptosis (IAP) protein antagonists” (Sanford Burnham Prebys Medical Discovery Institute, priority 2019, dated 2026).

The nature of data set [1]: Pharmacokinetic study in mice, time course PK. Type of data set: in vivo. Particulars: female, C57BL/6J, mouse, IP dose 10 mg/kg, plasma. The method, then: (§1) All animal procedures were approved by the Sanford Burnham Prebys Medical Discovery Institute Institutional Animal Care and Use Committee and were performed according to the NIH guidelines for the Care and Use of Laboratory Animals. Adult female C57BL/6J were purchased from JAX laboratories and housed with free access to food and water on a 12 h light/dark cycle. Compounds were formulated in 5% DMSO, 10% Tween-80, and 85% dH2O and injected intraperitoneally (i.p.) into mice at doses of 10 mg/kg. For snapshot PK analysis, blood samples were collected retro-orbitally one hour after injection and for the time course PK study, blood samples were collected at 15 min, 30 min, 1 h, 2 h, 4 h, 6 h, 24 h time points. For the blood samples plasma was separated by centrifugation. Plasma samples were extracted with acetonitrile:water 4:1 with 0.1% formic acid containing indometacin as an internal standard. Samples were centrifuged and supernatants were diluted with acetonitrile:water and analyzed via LC-MS/MS on a Shimadzu Nexera X2 HPLC coupled to an AB Sciex 6500 QTRAP.
In vivo pharmacokinetic data for compound 18m in mice. Compound was formulated in 5% DMSO, 10% Tween 80 and water and administered by intraperitoneal injection.

In the next data set the target is BIR3 domain of cIAP2 (Homo sapiens, UniProt Q13489). Briefly: Fluorescence polarization assay. Type of data set: binding. To be noted: SMAC-FITC probe, Ki calculated from IC50. An outline of the steps: (§2)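 Competitive FP with 50 nM SMAC-FITC probe in 100 mM KH2PO4 pH 7.5, 50 μM ZnSO4, 1 mM TCEP; cIAP1 and XIAP at 800 nM, cIAP2 and ML-IAP at 1.5 μM. Compounds 30 μM to 1.5 nM in 3-fold steps; ex 485/em 535 nm. IC50 by nonlinear fit, converted to Ki via Nikolovska-Coleska equation.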

The target of another data set is T1, ML-IAP (Homo sapiens, UniProt Q96CA5).
T1 sequence (Q96CA5 1-298): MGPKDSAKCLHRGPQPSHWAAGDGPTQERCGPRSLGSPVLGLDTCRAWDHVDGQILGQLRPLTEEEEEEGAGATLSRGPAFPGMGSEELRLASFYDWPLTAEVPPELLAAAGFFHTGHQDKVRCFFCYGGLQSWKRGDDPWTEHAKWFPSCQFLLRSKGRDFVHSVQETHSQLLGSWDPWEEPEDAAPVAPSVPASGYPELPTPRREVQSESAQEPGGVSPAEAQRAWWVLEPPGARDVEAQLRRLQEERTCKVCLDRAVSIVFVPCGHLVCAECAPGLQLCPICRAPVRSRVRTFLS
Briefly: Fluorescence polarization assay. Type of data set: binding. Particulars: SMAC-FITC probe, Ki calculated from IC50. An outline of the steps: as §2

A further data set addresses BIR3 domain of cIAP1 (Homo sapiens, UniProt Q13490). Briefly: Fluorescence polarization assay. It is filed as binding. To be noted: SMAC-FITC probe, Ki calculated from IC50. An outline of the steps:
as §2

For the next data set, the target named is BIR3 domain of XIAP (Homo sapiens, UniProt P98170). Briefly: Fluorescence polarization assay. Particulars: SMAC-FITC probe, Ki calculated from IC50. It is filed as binding. A digest of the protocol:
as §2

Data set [2] deals with latently infected cell line Jurkat 2D10. Description: HIV Jurkat 2D10 cells GFP+ assay (reversal of HIV latency). It is filed as cell-based. Particulars: Homo sapiens, Jurkat, 48 h, read-out: Jurkat 2D10 GFP+ EC50. A digest of the protocol:
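Jurkat 2D10 cells exposed to graded doses of test compounds or IAP antagonists (BV-6, SM-164, Birinapant, LCL-161, GDC-0152, AT-406) for 48 hours. GFP expression quantified by flow cytometry. Induction expressed relative to baseline GFP in untreated cells.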

Data set [3] in a line: Pharmacokinetic study in mice, snapshot PK. Type of data set: in vivo. To be noted: female, C57BL/6J, mouse, plasma, ip, one hour after i.p. injection of 10 mg/kg. The method, then: as §1
Plasma exposure of selected compounds at 1 h compared.
Plasma levels of parent compound determined one hour after i.p. injection of 10 mg/kg

A further data set has as its system SKOV-3. Description: Cell viability (CellTiter-Glo), 48 hrs. It is filed as cell-based. Particulars: Homo sapiens, SK-OV-3, 48 h, read-out: SKOV-3 Viability 48 h IC50. (In general: ATP-based viability assays read luminescence as a measure of living cells.)
In a further data set the test system is MOLM 13. Briefly: Cell viability (CellTiter-Glo), 6-day compound treatment. It is filed as cell-based, Human. Particulars: Homo sapiens, MOLM-13, 144 h, read-out: MOLM 13 Viability 6 d IC50. A digest of the protocol: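 Cells plated at 1700 per well, left overnight at 37° C./5% CO2, then exposed to 10-fold compound dilutions for 6 days […]. Viability by CellTiter-Glo luminescence; IC50 from nonlinear regression fit.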

In a further data set the test system is AML-SH-075. Description: Cell viability in patient derived AML samples (CellTiterGlo, 72 h). Type of data set: cell-based, human. The method, then:
(§3) Patient AML samples were gathered (under IRB 13-6180) from Scripps MD Anderson, La Jolla, CA Fresh blood samples were subjected to gradient density centrifugation with Ficoll-Paque™ PLUS (17-1440-02, GE Healthcare) and peripheral blood mononuclear cells purified as per manufacturer's protocol.
(§4) 75 nL of 1000× serially diluted IAP inhibitors were spotted in triplicate onto 384-well tissue culture treated plates (Greiner) using a Labcyte Echo acoustic dispensing device. Patient-derived AML cells were maintained in mTeSR1^+1× supplements (Stemcell Technologies) and penicillin/streptomycin/L-glutamine (Omega Scientific Inc.) and Fungizone (HyClone). 25 μL of cell dilution were plated into 384-well plate containing the drugs and incubated for 72 h. Cell viability was assessed by adding 25 μL CellTiterGlo (Promega Corp.) on a Synergy 2 plate reader with Gen5 software (Biotek). % viability was calculated by normalizing luminescence to vehicle only controls (DMSO) in Microsoft Excel and plotted using GraphPad Prism 8. The IC50 values were calculated using log(inhibitor) vs. response—Variable slope (four parameters) equation. (FIG. 6)

Another data set concerns AML-SH-074. Described as above. Type of data set: cell-based, human. The method, then: as §3, §4
The next data set deals with AML-SH-065. The description is as above. Type of data set: cell-based, human. The method, then: as §3, §4

pEC50, pIC50, pKi: −log10 of the molar value. A value given as a limit tells only on which side of the number the result lay.

Chain of BIR3 domain of cIAP1 (Q13490 253-363 limits assumed): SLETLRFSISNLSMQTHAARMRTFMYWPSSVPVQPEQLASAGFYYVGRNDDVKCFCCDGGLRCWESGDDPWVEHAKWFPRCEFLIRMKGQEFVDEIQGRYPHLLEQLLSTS
Chain of BIR3 domain of cIAP2 (Q13489 238-349 limits assumed): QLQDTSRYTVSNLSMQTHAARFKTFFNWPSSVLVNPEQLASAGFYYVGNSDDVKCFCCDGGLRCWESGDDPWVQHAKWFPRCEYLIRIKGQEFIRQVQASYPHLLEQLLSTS
Chain of BIR3 domain of XIAP (P98170 241-356 limits assumed): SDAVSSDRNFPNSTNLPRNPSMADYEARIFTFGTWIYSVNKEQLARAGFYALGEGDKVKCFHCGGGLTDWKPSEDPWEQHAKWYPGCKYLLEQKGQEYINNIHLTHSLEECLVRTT

The AUC(0-t) is the area under the concentration-time curve up to a stated or last time point. Low values mean low exposure, high ones high exposure. As a reminder, the Cmax is the highest concentration seen after dosing. One may read the Tmax as the time from dosing to the highest level. A word on the half-life: it is the time needed for the level to fall by half in the phase considered. Usually pKi stands for −log10 of the Ki, conventionally taken in molar units. The term pEC50 denotes the negative decadic logarithm of the EC50, by convention in mol/L. The term pIC50 denotes the IC50 on a negative log10 scale, so that one unit is a factor of ten. `CC[C@H](NC)C(=O)N[C@H]1CCS[C@H]2CC(C)(C)[C@@H](C(=O)N[C@H]3c4ccccc4C[C@H]3OCC#CC#CCO[C@@H]3Cc4ccccc4[C@@H]3NC(=O)[C@H]3N4C(=O)[C@@H](NC(=O)[C@H](CC)NC)CCS[C@H]4CC3(C)C)N2C1=O` [Compound 18m, [(1S)-1-{[(4S,7S,9aS)-7-{[(1S,2R)-2-[(6-{[(1S,2R)-1-[(4S,7S,9aS)-8,8-Dimethyl-4-[(2S)-2-(methylazaniumyl)butanamido]-5-oxo-octahydropyrrolo[2,1-b][1,3]thiazepine-7-amido]-2,3-dihydro-1H-inden-2-yl]oxy}hexa-2,4-diyn-1-yl)oxy]-2,3-dihydro-1H-inden-1-yl]carbamoyl}-8,8-dimethyl-5-oxo-octahydropyrrolo[2,1-b][1,3]thiazepin-4-yl]carbamoyl}propyl](methyl)azanium dichloride] displayed an AUC(0-t) in data set [1] of 18.1 µM·h. Moreover, the Cmax in data set [1] turned out to be 6.6 µM. For the same molecule, the Tmax in data set [1] was 1 h. In addition, in data set [1] (terminal half-life), the half-life was 3 h. The pKi at BIR3 domain of cIAP2 is 7.00 to 7.30; on ML-IAP, 7.00 to 7.30; at BIR3 domain of cIAP1 it was at least 7.30; at BIR3 domain of XIAP, at least 7.30. The pEC50 in data set [2] was 8.00 to 9.00. This molecule registered a concentration at 1 h in data set [3] of 6.59 µM. For the same molecule, the pIC50 with SKOV-3 was over 8.00; in the data set with MOLM 13, 7.00 to 8.00; in the data set with AML-SH-075 (Homo sapiens, 72 h, read-out: AML-SH-075 IC50), 7.00 to 8.00; in the data set on AML-SH-074 (Homo sapiens, 72 h, read-out: AML-SH-074 IC50) it was 6.00 to 7.00; in the data set with AML-SH-065 (Homo sapiens, 72 h, read-out: AML-SH-065 IC50) it was over 8.00. In addition, the “AML-SH-075 Efficacy” value in the data set with AML-SH-075 (patient derived AML sample AML-SH-075, 72 h, cell viability at max. concentration) is listed as “I (I < 10%)”. Also, the “AML-SH-074 Efficacy” value in the data set with AML-SH-074 (patient derived AML sample AML-SH-074, 72 h, cell viability at max. concentration) is recorded as “I (I < 10%)”. For the same molecule, the “AML-SH-065 Efficacy” value with AML-SH-065 (patient derived AML sample AML-SH-065, 72 h, cell viability at max. concentration) is given as “I (I < 10%)”.
